According to US20080200404A1, “Novel Antimalarial 9A-Carbamoyl-Aminoalkyl and 9A-Thiocarbamoyl-Aminoalkyl Azalides” (priority 2005, published 2008):
Values after ≈ are worked out from the molar mass of the structure shown.

Key:
Format in all cases: cell-based
[1] = test system: Plasmodium falciparum TM91C235; assay: In vitro antimalarial [3H]-hypoxanthine incorporation assay, TM91C235; details: Plasmodium falciparum; P. falciparum TM91C235 (multiple drug resistant isolate), 72 hours exposure
Source text: (§1) The in vitro screens for intrinsic antimalarial activity were based on modifications of the procedures described by Desjardins R E, Canfield C J, Haynes J D, Chulay J D. (Quantitative assessment of antimalarial activity in vitro by a semiautomated microdilution technique. Antimicrob Agents Chemother. 1979 December; 16(6):710-8.), Chulay J D, Haynes J D, Diggs C L. (Plasmodium falciparum: Assessment of in vitro growth by [3H]hypoxanthine incorporation. Exp. Parasitol. 1983 55:138-146.), and Milhous W K, Weatherly N F, Bowdre J H, Desjardins R E. (In vitro activities of and mechanisms of resistance to antifol antimalarial drugs. Antimicrob Agents Chemother. 1985 April; 27(4):525-30.). The system was limited to the assessment of the intrinsic activity against the erythrocytic asexual life cycle (blood schizontocides). Two Plasmodium falciparum clones from CDC/Indochina III (W-2) and CDC/Sierra Leone I (D-6) (Oduola A M, Weatherly N F, Bowdre J H, Desjardins R E. Plasmodium falciparum: cloning by single-erythrocyte micromanipulation and heterogeneity in vitro. Exp Parasitol. 1988 66(1):86-95.) were used for all assays. TM91C235, a multiple drug resistant isolate from Thailand, was used for the prescreening assay. W-2 is resistant to chloroquine, quinine, and pyrimethamine and susceptible to mefloquine. D-6 tends to be more resistant to mefloquine and susceptible to chloroquine, quinine, and pyrimethamine. All documents cited in this paragraph are incorporated by reference in their entirety.
(§2) All parasites were maintained in continuous long term cultures in RPMI-1640 medium supplemented with 6% washed human A positive (A+)(erythrocytes, 25 mM Hepes, […], and 10% heat inactivated A+human plasma or ALBUMAX® (lipid-rich bovine serum albumin; Invitrogen, Carlsbad, Calif.). All cultures and assays were conducted at 37° C. under an atmosphere of 5% CO2 and 5% O2, with a balance of N2.
The prescreening assay uses TM91C235 diluted at a 0.4% parasitemia in a 1% hematocrit in folic acid free and p-aminobenzoic acid free media RPMI-1640 and ALBUMAX®. One mg of the compound is typically dissolved in 100 μl of dimethyl sulfoxide (DMSO). The compound is further diluted in culture medium (FF) with ALBUMAX® for the first initial starting concentration. The rest of the stock drug solution was kept at −70° C. The isolate was preexposed, in duplicate, at three concentrations (25,000 ng/ml, 2,500 ng/ml, and 25 ng/ml) of the test compound for 48 hr in a 96-well microtiter plate (MTP) using the BIOMEK® 2000 automated laboratory workstation. Each MTP contains chloroquine as control to assess the relative activity of the compound and to monitor the response of TM91C235.
(§3) After the preincubation, [^3H]-hypoxanthine was added to each well of the MTP. (The assay relies on the incorporation of radiolabeled hypoxanthine by the parasites, which indicates reproduction, and inhibition of isotope incorporation was attributed to activity of known or candidate antimalarial drugs). After 72 hr of total incubation time, the MTP were frozen to lyse the erythrocytes and parasites. The parasite DNA was recovered by harvesting the lysate onto glass-fiber filter plates using a Packard FilterMate™ Cell Harvester. The radioactivity was counted on a Packard TopCount™ microplate scintillation counter. The results were recorded as counts per minutes (CPM) per well at each drug concentration divided by the arithmetic mean of the CPM from the three untreated infection parasite control wells.
The serial dilution assay was conducted using the same assay conditions and stock solution of the compound used for the preliminary screen, described above. Both the D-6 and the W-2 clones were used. The compounds were diluted two-fold over 11 different concentration ranges with a starting concentration that was based on the preliminary screen. […]

[2] = test system: Plasmodium falciparum clone CDC/Indochina III (W-2); assay: In vitro antimalarial [3H]-hypoxanthine incorporation serial dilution assay, W2; details: Plasmodium falciparum; P. falciparum W2, 72 hours exposure
Source text: as §1, §2, §3
(§4) The serial dilution assay was conducted using the same assay conditions and stock solution of the compound used for the preliminary screen, described above. Both the D-6 and the W-2 clones were used. The compounds were diluted two-fold over 11 different concentration ranges with a starting concentration that was based on the preliminary screen. For each drug, the concentration response profile was determined and 50% inhibitory concentrations (IC50) were determined by using a non-linear, logistic dose response analysis program. […] For each assay, the IC50 for each clone was determined against the known antimalarials chloroquine and mefloquine. These control values established the compound's relative parasite susceptibility profile compared to known antimalarials. […]
(§5) The in vitro potency of the compounds has been compared with that of azithromycin to better gauge compounds suitable for further testing. As described above, parasites were exposed for 72 hours. Data from the in vitro potency tests of azithromycin against the three parasite strains have been averaged, and these numbers have been used for identification of “active” macrolide compounds.

[3] = test system: Plasmodium falciparum clone CDC/Sierra Leone I (D-6); assay: In vitro antimalarial [3H]-hypoxanthine incorporation serial dilution assay, D6; details: Plasmodium falciparum, D6, 72 h, P. falciparum D6, 72 hours exposure; read-out: IC50 D6
Source text: as §1, §2, §3, §4, §5

Row | Compound | IC50 [1] [µg/mL] | IC50 [2] [µg/mL] | IC50 [3] [µg/mL]
1 | CC[C@H]1OC(=O)[C@H](C)[C@@H](O[C@H]2C[C@@](C)(OC)[C@@H](O)[C@H](C)O2)[C@H](C)[C@@H](O[C@@H]2O[C@H](C)C[C@H](N(C)C)[C@H]2O)[C@](C)(O)C[C@@H](C)CN(CCCNC(=O)Nc2cc(F)cc3c2OCOC3)[C@H](C)[C@@H](O)[C@]1(C)O.O=CO [Example 82] | 0.227 | 0.316 | 0.293
2 | CC[C@H]1OC(=O)[C@H](C)[C@@H](O[C@H]2C[C@@](C)(OC)[C@@H](O)[C@H](C)O2)[C@H](C)[C@@H](O[C@@H]2O[C@H](C)C[C@H](N(C)C)[C@H]2O)[C@](C)(O)C[C@@H](C)CN(CCCNC(=O)Nc2ccc3c(c2)OCCCO3)[C@H](C)[C@@H](O)[C@]1(C)O.O=CO [Example 84] | 0.0618 | 0.042 | 0.0289
3 | CC[C@H]1OC(=O)[C@H](C)[C@@H](O[C@H]2C[C@@](C)(OC)[C@@H](O)[C@H](C)O2)[C@H](C)[C@@H](O[C@@H]2O[C@H](C)C[C@H](N(C)C)[C@H]2O)[C@](C)(O)C[C@@H](C)CN(CCCNC(=O)Nc2ccccc2-c2ccccc2)[C@H](C)[C@@H](O)[C@]1(C)O.O=CO [Example 85] | 0.142 | 0.209 | 0.262
4 | CC[C@H]1OC(=O)[C@H](C)[C@@H](O[C@H]2C[C@@](C)(OC)[C@@H](O)[C@H](C)O2)[C@H](C)[C@@H](O[C@@H]2O[C@H](C)C[C@H](N(C)C)[C@H]2O)[C@](C)(O)C[C@@H](C)CN(CCCNC(=O)Nc2ccc(OC)c(OC3CCCC3)c2)[C@H](C)[C@@H](O)[C@]1(C)O [Example 86] | 0.142 (≈ 0.138 µM) | 0.207 (≈ 0.201 µM) | 0.457 (≈ 0.445 µM)
5 | CC[C@H]1OC(=O)[C@H](C)[C@@H](O[C@@H]2C[C@@H](C)[C@H](O)[C@](C)(OC)C2)[C@H](O)[C@@H](O[C@@H]2O[C@H](C)C[C@H](N(C)C)[C@H]2O)[C@](C)(O)C[C@@H](C)CN(CCCNC(=O)Nc2ccc(OCc3ccccc3)cc2)[C@H](C)[C@@H](O)[C@]1(C)O [Example 87] | 0.148 (≈ 0.146 µM) | 0.178 (≈ 0.175 µM) | 0.304 (≈ 0.299 µM)
6 | CC[C@H]1OC(=O)[C@H](C)[C@@H](O[C@H]2C[C@@](C)(OC)[C@@H](O)[C@H](C)O2)[C@H](C)[C@@H](O[C@@H]2O[C@H](C)C[C@H](N(C)C)[C@H]2O)[C@](C)(O)C[C@@H](C)CN(CCCNC(=O)Nc2cc(C)oc2C(F)(F)F)[C@H](C)[C@@H](O)[C@]1(C)O.O=CO [Example 88] | 0.33 | 0.319 | 0.371
7 | CC[C@H]1OC(=O)[C@H](C)[C@@H](O[C@H]2C[C@@](C)(OC)[C@@H](O)[C@H](C)O2)[C@H](C)[C@@H](O[C@@H]2O[C@H](C)C[C@H](N(C)C)[C@H]2O)[C@](C)(O)C[C@@H](C)CN(CCCNC(=O)Nc2c(C)noc2-c2ccccc2)[C@H](C)[C@@H](O)[C@]1(C)O.O=CO [Example 90] | 0.511 | 0.762 | 0.972
8 | CC[C@H]1OC(=O)[C@H](C)[C@@H](O[C@H]2C[C@@](C)(OC)[C@@H](O)[C@H](C)O2)[C@H](C)[C@@H](O[C@@H]2O[C@H](C)C[C@H](N(C)C)[C@H]2O)[C@](C)(O)C[C@@H](C)CN(CCCNC(=O)NC2CCN(C(=O)OCc3ccccc3)CC2)[C@H](C)[C@@H](O)[C@]1(C)O.O=CO [Example 91] | 0.259 | 0.303 | 0.698
9 | CCCCNC(=S)NCCCN1C[C@H](C)C[C@@](C)(O)[C@H](O[C@@H]2O[C@H](C)C[C@H](N(C)C)[C@H]2O)[C@@H](C)[C@H](O[C@H]2C[C@@](C)(OC)[C@@H](O)[C@H](C)O2)[C@@H](C)C(=O)O[C@H](CC)[C@@](C)(O)[C@H](O)[C@H]1C.O=CO [Example 96] | 0.364 | 0.179 | 0.625
